Experimental data published in patent publication US20260176320A1, “MODULATORS OF G-PROTEIN COUPLED RECEPTORS” (priority 2018, published 2026).
Where two headings read alike, the source gives them in different places. Square brackets hold non-standard residues; d marks the D form. Peptide text beside a SMILES is read from it. * marks the point of attachment. X1 = O=C(CSCC(=O)*)NCCN1C(=O)c2ccccc2C1=O; Aib = CC(C)(N)C(=O)O

Tests used:
Assay type in all cases: cell-based
GLP-1R [1] = target: T1, GLP-1R (Homo sapiens, UniProt P43220); experiment: HitHunter cAMP assay (GLP-1R); settings: cAMP; for Emax: read-out: (Emax) GLP-1R
T1 sequence (P43220 24-463): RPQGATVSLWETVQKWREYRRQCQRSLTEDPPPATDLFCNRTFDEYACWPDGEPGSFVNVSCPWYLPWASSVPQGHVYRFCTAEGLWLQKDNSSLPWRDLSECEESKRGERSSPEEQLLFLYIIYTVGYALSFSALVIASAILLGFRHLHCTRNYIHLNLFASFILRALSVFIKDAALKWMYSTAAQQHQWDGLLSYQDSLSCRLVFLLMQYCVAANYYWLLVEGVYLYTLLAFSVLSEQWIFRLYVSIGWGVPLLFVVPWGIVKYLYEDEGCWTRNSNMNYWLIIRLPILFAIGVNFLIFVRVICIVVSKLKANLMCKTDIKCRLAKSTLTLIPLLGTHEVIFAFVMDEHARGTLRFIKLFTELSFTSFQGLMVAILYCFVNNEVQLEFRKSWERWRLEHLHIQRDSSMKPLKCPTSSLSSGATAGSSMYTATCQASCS
Outline: (§1)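 cAMP accumulation read by luminescent HitHunter immunocompetition after 30 min room-temperature agonist stimulation. Agonists tested as 22-point twofold dilutions, in duplicate, on 10,000 cells/well in HBSS containing 625 μM IBMX, 10 mM HEPES and 0.2% BSA.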

GIP-R = target: T2, GIP-R (Homo sapiens, UniProt P48546); experiment: HitHunter cAMP assay (GIP-R); settings: cAMP; for Emax: read-out: (Emax) GIP-R
T2 sequence (P48546 22-466): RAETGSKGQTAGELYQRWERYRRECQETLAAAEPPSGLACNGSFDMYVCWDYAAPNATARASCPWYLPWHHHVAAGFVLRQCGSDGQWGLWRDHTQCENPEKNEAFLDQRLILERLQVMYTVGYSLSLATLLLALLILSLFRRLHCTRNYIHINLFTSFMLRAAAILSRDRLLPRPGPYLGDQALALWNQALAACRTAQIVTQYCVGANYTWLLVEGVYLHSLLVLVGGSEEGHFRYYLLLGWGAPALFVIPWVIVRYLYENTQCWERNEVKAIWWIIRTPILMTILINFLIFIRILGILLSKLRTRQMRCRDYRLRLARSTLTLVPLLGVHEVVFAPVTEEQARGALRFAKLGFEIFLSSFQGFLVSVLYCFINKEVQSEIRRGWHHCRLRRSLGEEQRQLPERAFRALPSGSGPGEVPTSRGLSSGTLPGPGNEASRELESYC
Outline: as §1

GLP-1R [2] = target: T1, GLP-1R; experiment: PathHunter β-arrestin assay
Outline: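 β-Arrestin recruitment measured by PathHunter enzyme-fragment luminescence, read after 3 h dark incubation at room temperature with detection solution. Beforehand, agonist in a 22-point 2-fold series was applied in duplicate for 90 min at 37 °C to 5,000 cells/well in BSA-containing (0.2%) medium.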

[3] = Table 3, read-out: EC50 GLP-1R/nM
[4] = Table 3A, read-out: EC50 GLP-1R/nM
[5] = Table 3, read-out: EC50 GIP-R/nM
[6] = Table 3A, read-out: EC50 GIP-R/nM
[7] = PathHunter β-arrestin assay, read-out: β-arrestin activity EC50

CC[C@H](C)[C@H](NC(=O)[C@H](CO)NC(=O)[C@H](Cc1ccc(O)cc1)NC(=O)[C@H](CC(=O)O)NC(=O)[C@H](CO)NC(=O)[C@@H](NC(=O)[C@H](Cc1ccccc1)NC(=O)[C@@H](NC(=O)CNC(=O)[C@H](CCC(=O)O)NC(=O)C(C)(C)C(=O)NCCCN1C(=O)c2ccccc2C1=O)[C@@H](C)O)[C@@H](C)O)C(=O)N[C@@H](Cc1ccc(O)cc1)C(=O)N[C@@H](CC(C)C)C(=O)N[C@@H](CC(=O)O)C(=O)N[C@@H](CCCCN)C(=O)N[C@@H](CCC(N)=O)C(=O)N[C@@H](C)C(=O)N[C@@H](C)C(=O)NC(C)(C)C(=O)N[C@@H](CCC(=O)O)C(=O)N[C@@H](Cc1ccccc1)C(=O)N[C@H](C(=O)N[C@@H](CC(N)=O)C(=O)N[C@@H](Cc1c[nH]c2ccccc12)C(=O)N[C@@H](CC(C)C)C(=O)N[C@@H](CC(C)C)C(=O)N[C@@H](C)C(=O)NCC(=O)NCC(=O)N1CCC[C@H]1C(=O)N[C@@H](CO)C(=O)N[C@@H](CO)C(=O)NCC(=O)N[C@@H](C)C(=O)N1CCC[C@H]1C(=O)N1CCC[C@H]1C(=O)N1CCC[C@H]1C(=O)N[C@@H](CO)C(=O)N[C@@H](CCCCN)C(N)=O)C(C)C [Compound 143]
Emax (GLP-1R [1]; Table 3): 99 to 108%
EC50 (GLP-1R [1]; [3]): 0.1 to 1 nM
Emax (GLP-1R [1]; Table 3A): 99 to 108%
EC50 (GLP-1R [1]; [4]): 0.1 to 1 nM
Emax (GIP-R; Table 3): 99 to 107%
EC50 (GIP-R; [5]): 1 to 10 nM
Emax (GIP-R; Table 3A): 99 to 107%
EC50 (GIP-R; [6]): 1 to 10 nM
EC50 (GLP-1R [2]; [7]): > 1000 nM

CC[C@H](C)[C@H](NC(=O)[C@H](CO)NC(=O)[C@H](Cc1ccc(O)cc1)NC(=O)[C@H](CC(=O)O)NC(=O)[C@H](CO)NC(=O)[C@@H](NC(=O)[C@H](Cc1ccccc1)NC(=O)[C@@H](NC(=O)CNC(=O)[C@H](CCC(=O)O)NC(=O)CSCC(=O)NCCN1C(=O)c2ccccc2C1=O)[C@@H](C)O)[C@@H](C)O)C(=O)N[C@@H](Cc1ccc(O)cc1)C(=O)N[C@@H](CC(C)C)C(=O)N[C@@H](CC(=O)O)C(=O)N[C@@H](CCCCN)C(=O)N[C@@H](CCC(N)=O)C(=O)N[C@@H](C)C(=O)N[C@@H](C)C(=O)NC(C)(C)C(=O)N[C@@H](CCC(=O)O)C(=O)N[C@@H](Cc1ccccc1)C(=O)N[C@H](C(=O)N[C@@H](CC(N)=O)C(=O)N[C@@H](Cc1c[nH]c2ccccc12)C(=O)N[C@@H](CC(C)C)C(=O)N[C@@H](CC(C)C)C(=O)N[C@@H](C)C(=O)NCC(=O)NCC(=O)N1CCC[C@H]1C(=O)N[C@@H](CO)C(=O)N[C@@H](CO)C(=O)NCC(=O)N[C@@H](C)C(=O)N1CCC[C@H]1C(=O)N1CCC[C@H]1C(=O)N1CCC[C@H]1C(=O)N[C@@H](CO)C(=O)N[C@@H](CCCCN)C(N)=O)[C@@H](C)CC [Compound 144] (X1-EGTFTSDYSIYLDKQAA[Aib]EFINWLLAGGPSSGAPPPSK-NH2)
EC50 (GLP-1R [1]; EC50 GLP-1R/nM, Table 3): 1 to 10 nM
EC50 (GLP-1R [1]; EC50 GLP-1R/nM, Table 3A): 1 to 10 nM
Emax (GLP-1R [1]; Table 3): 93 to 119%
Emax (GLP-1R [1]; Table 3A): 93 to 119%
EC50 (GIP-R; EC50 GIP-R/nM, Table 3): < 0.1 nM
EC50 (GIP-R; EC50 GIP-R/nM, Table 3A): < 0.1 nM
Emax (GIP-R; Table 3): 127 to 140%
Emax (GIP-R; Table 3A): 127 to 140%
EC50 (GLP-1R [2]): > 1000 nM

CC[C@H](C)[C@H](NC(=O)[C@H](CO)NC(=O)[C@H](Cc1ccc(O)cc1)NC(=O)[C@H](CC(=O)O)NC(=O)[C@H](CO)NC(=O)[C@@H](NC(=O)[C@H](Cc1ccccc1)NC(=O)[C@@H](NC(=O)CNC(=O)[C@H](CCC(=O)O)NC(=O)CSCC(=O)NCCN1C(=O)c2ccccc2C1=O)[C@@H](C)O)[C@@H](C)O)C(=O)N[C@@H](Cc1ccc(O)cc1)C(=O)N[C@@H](CC(C)C)C(=O)N[C@@H](CC(=O)O)C(=O)N[C@@H](CCCCN)C(=O)N[C@@H](CCC(N)=O)C(=O)N[C@@H](C)C(=O)N[C@@H](C)C(=O)NC(C)(C)C(=O)N[C@@H](CC(C)C)C(=O)N[C@@H](Cc1ccccc1)C(=O)N[C@H](C(=O)N[C@@H](CC(N)=O)C(=O)N[C@@H](Cc1c[nH]c2ccccc12)C(=O)N[C@@H](CC(C)C)C(=O)N[C@@H](CC(C)C)C(=O)N[C@@H](C)C(=O)NCC(=O)NCC(=O)N1CCC[C@H]1C(=O)N[C@@H](CO)C(=O)N[C@@H](CO)C(=O)NCC(=O)N[C@@H](C)C(=O)N1CCC[C@H]1C(=O)N1CCC[C@H]1C(=O)N1CCC[C@H]1C(=O)N[C@@H](CO)C(=O)N[C@@H](CCCCN)C(N)=O)C(C)C [Compound 145] (X1-EGTFTSDYSIYLDKQAA[Aib]LFVNWLLAGGPSSGAPPPSK-NH2)
EC50 (GLP-1R [1]; EC50 GLP-1R/nM, Table 3): 1 to 10 nM
EC50 (GLP-1R [1]; EC50 GLP-1R/nM, Table 3A): 1 to 10 nM
Emax (GLP-1R [1]; Table 3): 100 to 104%
Emax (GLP-1R [1]; Table 3A): 100 to 104%
Emax (GIP-R; Table 3): 125%
Emax (GIP-R; Table 3A): 125%
EC50 (GIP-R; read-out: EC50 GIP-R/nM, Table 3): < 1 nM
EC50 (GIP-R; read-out: EC50 GIP-R/nM, Table 3A): < 1 nM
EC50 (GLP-1R [2]): > 1000 nM

CC[C@H](C)[C@H](NC(=O)[C@H](CO)NC(=O)[C@H](Cc1ccc(O)cc1)NC(=O)[C@H](CC(=O)O)NC(=O)[C@H](CO)NC(=O)[C@@H](NC(=O)[C@H](Cc1ccccc1)NC(=O)[C@@H](NC(=O)CNC(=O)[C@H](CCC(=O)O)NC(=O)CCNC(=O)CCCN1C(=O)c2ccccc2C1=O)[C@@H](C)O)[C@@H](C)O)C(=O)N[C@@H](Cc1ccc(O)cc1)C(=O)N[C@@H](CC(C)C)C(=O)N[C@@H](CC(=O)O)C(=O)N[C@@H](CCCCN)C(=O)N[C@@H](CCC(N)=O)C(=O)N[C@@H](C)C(=O)N[C@@H](C)C(=O)NC(C)(C)C(=O)N[C@@H](CCC(=O)O)C(=O)N[C@@H](Cc1ccccc1)C(=O)N[C@H](C(=O)N[C@@H](CC(N)=O)C(=O)N[C@@H](Cc1c[nH]c2ccccc12)C(=O)N[C@@H](CC(C)C)C(=O)N[C@@H](CC(C)C)C(=O)N[C@@H](C)C(=O)NCC(=O)NCC(=O)N1CCC[C@H]1C(=O)N[C@@H](CO)C(=O)N[C@@H](CO)C(=O)NCC(=O)N[C@@H](C)C(=O)N1CCC[C@H]1C(=O)N1CCC[C@H]1C(=O)N1CCC[C@H]1C(=O)N[C@@H](CO)C(=O)N[C@@H](CCCCN)C(N)=O)C(C)C [Compound 146]
Emax (GLP-1R [1]; Table 3): 86 to 92%
EC50 (GLP-1R [1]; [3]): 1 to 10 nM
Emax (GLP-1R [1]; Table 3A): 86 to 92%
EC50 (GLP-1R [1]; [4]): 1 to 10 nM
Emax (GIP-R; Table 3): 83 to 97%
EC50 (GIP-R; [5]): 10 to 100 nM
Emax (GIP-R; Table 3A): 83 to 97%
EC50 (GIP-R; [6]): 1 to 10 nM
EC50 (GLP-1R [2]; [7]): > 1000 nM

CC[C@H](C)[C@H](NC(=O)[C@H](CO)NC(=O)[C@H](Cc1ccc(O)cc1)NC(=O)[C@H](CC(=O)O)NC(=O)[C@H](CO)NC(=O)[C@@H](NC(=O)[C@H](Cc1ccccc1)NC(=O)[C@@H](NC(=O)CNC(=O)[C@H](CCC(=O)O)NC(=O)CSCC(=O)NCCN1C(=O)c2ccccc2C1=O)[C@@H](C)O)[C@@H](C)O)C(=O)N[C@@H](Cc1ccc(O)cc1)C(=O)N[C@@H](CC(C)C)C(=O)N[C@@H](CC(=O)O)C(=O)N[C@@H](CCCCN)C(=O)N[C@@H](CCC(N)=O)C(=O)N[C@@H](C)C(=O)N[C@H](C(=O)NC(C)(C)C(=O)N[C@@H](CCC(=O)O)C(=O)N[C@@H](Cc1ccccc1)C(=O)N[C@H](C(=O)N[C@@H](CC(N)=O)C(=O)N[C@@H](Cc1c[nH]c2ccccc12)C(=O)N[C@@H](CC(C)C)C(=O)N[C@@H](CC(C)C)C(=O)N[C@@H](C)C(=O)NCC(=O)NCC(=O)N1CCC[C@H]1C(=O)N[C@@H](CO)C(=O)N[C@@H](CO)C(=O)NCC(=O)N[C@@H](C)C(=O)N1CCC[C@H]1C(=O)N1CCC[C@H]1C(=O)N1CCC[C@H]1C(=O)N[C@@H](CO)C(=O)N[C@@H](CCCCN)C(N)=O)C(C)C)C(C)C [Compound 147] (X1-EGTFTSDYSIYLDKQAV[Aib]EFVNWLLAGGPSSGAPPPSK-NH2)
EC50 (GLP-1R [1]; EC50 GLP-1R/nM, Table 3): 1 to 10 nM
EC50 (GLP-1R [1]; EC50 GLP-1R/nM, Table 3A): 1 to 10 nM
Emax (GLP-1R [1]; Table 3): 87 to 97%
Emax (GLP-1R [1]; Table 3A): 87 to 97%
EC50 (GIP-R; EC50 GIP-R/nM, Table 3): < 0.1 nM
EC50 (GIP-R; EC50 GIP-R/nM, Table 3A): < 0.1 nM
Emax (GIP-R; Table 3): 114 to 128%
Emax (GIP-R; Table 3A): 114 to 128%
EC50 (GLP-1R [2]): > 1000 nM
